Measured values published in ChEMBL document CHEMBL3865816, “Design, synthesis and biological evaluation of novel azaspiro analogs of linezolid as antibacterial and antitubercular agents” (Eur J Med Chem, 2016).
Converted amounts (≈) assume the structure as drawn.

How the values were obtained:
Assay type in all cases: functional
Bacillus subtilis [1] = assay: Antibacterial activity against Bacillus subtilis NCIM 2010 at 3 ug/ml measured after 12 hrs by spectrophotometric method; settings: NCIM 2010, 12 h
Staphylococcus aureus [2] = assay: Antibacterial activity against Staphylococcus aureus NCIM 2079 at 3 ug/ml measured after 12 hrs by spectrophotometric method; settings: NCIM 2079, 12 h
Bacillus subtilis [3] = assay: Antibacterial activity against Bacillus subtilis NCIM 2010 measured after 12 hrs by spectrophotometric method; settings: NCIM 2010, 12 h
[4] = tested on: Mycobacterium tuberculosis; assay: Antitubercular activity against dormant stage Mycobacterium tuberculosis H37Ra at 3 ug/ml measured after 12 days by XTT assay; settings: 288 h
Pseudomonas aeruginosa [5] = assay: Antibacterial activity against Pseudomonas aeruginosa NCIM 2036 at 30 ug/ml measured after 8 hrs by spectrophotometric method; settings: NCIM 2036, 8 h
Bacillus subtilis [6] = assay: Antibacterial activity against Bacillus subtilis NCIM 2010 at 10 ug/ml measured after 12 hrs by spectrophotometric method; settings: NCIM 2010, 12 h
Staphylococcus aureus [7] = assay: Antibacterial activity against Staphylococcus aureus NCIM 2079 at 10 ug/ml measured after 12 hrs by spectrophotometric method; settings: NCIM 2079, 12 h
Pseudomonas aeruginosa [8] = assay: Antibacterial activity against Pseudomonas aeruginosa NCIM 2036 measured after 8 hrs by spectrophotometric method; settings: NCIM 2036, 8 h
[9] = tested on: Mycobacterium tuberculosis; assay: Antitubercular activity against dormant stage Mycobacterium tuberculosis H37Ra at 30 ug/ml measured after 12 days by XTT assay; settings: 288 h
Escherichia coli [10] = assay: Antibacterial activity against Escherichia coli NCIM 2688 at 3 ug/ml measured after 8 hrs by spectrophotometric method; settings: NCIM 2688, 8 h
Staphylococcus aureus [11] = assay: Antibacterial activity against Staphylococcus aureus NCIM 2079 at 30 ug/ml measured after 12 hrs by spectrophotometric method; settings: NCIM 2079, 12 h
Pseudomonas aeruginosa [12] = assay: Antibacterial activity against Pseudomonas aeruginosa NCIM 2036 at 3 ug/ml measured after 8 hrs by spectrophotometric method; settings: NCIM 2036, 8 h
Bacillus subtilis [13] = assay: Antibacterial activity against Bacillus subtilis NCIM 2010 at 30 ug/ml measured after 12 hrs by spectrophotometric method; settings: NCIM 2010, 12 h
Escherichia coli [14] = assay: Antibacterial activity against Escherichia coli NCIM 2688 at 30 ug/ml measured after 8 hrs by spectrophotometric method; settings: NCIM 2688, 8 h
[15] = tested on: Mycobacterium tuberculosis; assay: Antitubercular activity against dormant stage Mycobacterium tuberculosis H37Ra measured after 12 days by XTT assay; settings: 288 h
[16] = tested on: Mycobacterium tuberculosis; assay: Antitubercular activity against dormant stage Mycobacterium tuberculosis H37Ra at 10 ug/ml measured after 12 days by XTT assay; settings: 288 h
[17] = tested on: Mycobacterium tuberculosis; assay: Antitubercular activity against active stage Mycobacterium tuberculosis H37Ra measured after 8 days by XTT assay; settings: 192 h
Escherichia coli [18] = assay: Antibacterial activity against Escherichia coli NCIM 2688 at 10 ug/ml measured after 8 hrs by spectrophotometric method; settings: NCIM 2688, 8 h
Staphylococcus aureus [19] = assay: Antibacterial activity against Staphylococcus aureus NCIM 2079 measured after 12 hrs by spectrophotometric method; settings: NCIM 2079, 12 h
Pseudomonas aeruginosa [20] = assay: Antibacterial activity against Pseudomonas aeruginosa NCIM 2036 at 10 ug/ml measured after 8 hrs by spectrophotometric method; settings: NCIM 2036, 8 h
Escherichia coli [21] = assay: Antibacterial activity against Escherichia coli NCIM 2688 measured after 8 hrs by spectrophotometric method; settings: NCIM 2688, 8 h

SMILES | inhibition at 3 µg/mL (Bacillus subtilis [1]) [%] | inhibition at 3 µg/mL (Staphylococcus aureus [2]) [%] | IC50 (Bacillus subtilis [3]) [µg/mL] | MIC (Bacillus subtilis [3]) [µg/mL] | inhibition at 3 µg/mL [4] [%] | inhibition at 30 µg/mL (Pseudomonas aeruginosa [5]) [%] | inhibition at 10 µg/mL (Bacillus subtilis [6]) [%] | inhibition at 10 µg/mL (Staphylococcus aureus [7]) [%] | IC50 (Pseudomonas aeruginosa [8]) [µg/mL] | MIC (Pseudomonas aeruginosa [8]) [µg/mL] | inhibition at 30 µg/mL [9] [%] | inhibition at 3 µg/mL (Escherichia coli [10]) [%] | inhibition at 30 µg/mL (Staphylococcus aureus [11]) [%] | inhibition at 3 µg/mL (Pseudomonas aeruginosa [12]) [%] | inhibition at 30 µg/mL (Bacillus subtilis [13]) [%] | inhibition at 30 µg/mL (Escherichia coli [14]) [%] | IC50 [15] [µg/mL] | MIC [15] [µg/mL] | inhibition at 10 µg/mL [16] [%] | inhibition at 10 µg/mL (Escherichia coli [18]) [%] | also measured
CC(=O)OCC(=O)NC[C@H]1CN(c2ccc(N3CC4(COC4)C3)c(F)c2)C(=O)O1 | 43.6 | 82.5 | > 100 | > 100 | -16.6 | 58.3 | 73.6 | 93.9 | > 100 | > 100 | 88.9 | 49.4 | 98.2 | 22.8 | 99.3 | 89.1 | 6.69 (≈ 16.4 µM) | 10.6 (≈ 26.1 µM) | 4.03 | 63.9 | IC50 [17]: 3.24 µg/mL (≈ 7.95 µM); MIC [17]: 7.8 µg/mL (≈ 19.1 µM); IC50 (Staphylococcus aureus [19]): 0.75 µg/mL (≈ 1.84 µM); MIC (Staphylococcus aureus [19]): 8.4 µg/mL (≈ 20.6 µM); inhibition at 10 µg/mL (Pseudomonas aeruginosa [20]): 42.8%; IC50 (Escherichia coli [21]): > 100 µg/mL; MIC (Escherichia coli [21]): > 100 µg/mL
O=C1O[C@@H](CNC(=S)Nc2ccc(Cl)cc2)CN1c1ccc(N2CC3(COC3)C2)c(F)c1 | 24.1 | 18.8 | > 100 | > 100 | 14.8 | 71.2 | 45.6 | 37.9 | > 100 | > 100 | -0.48 | 47.7 | 47.5 | 34 | 62.6 | 69.9 | > 100 | > 100 | 15.7 | 42.5 | IC50 (Staphylococcus aureus [19]): > 100 µg/mL; MIC (Staphylococcus aureus [19]): > 100 µg/mL; inhibition at 10 µg/mL (Pseudomonas aeruginosa [20]): 49.4%; IC50 (Escherichia coli [21]): > 100 µg/mL; MIC (Escherichia coli [21]): > 100 µg/mL
NC[C@H]1CN(c2ccc(N3CC4(COC4)C3)c(F)c2)C(=O)O1 | 36.4 | 86.5 | > 100 | > 100 | 15.2 | 56.9 | 43.3 | 94.3 | > 100 | > 100 | 90.9 | 88 | 98.9 | 49.2 | 48.8 | 99.2 | 3.46 (≈ 11.3 µM) | 11.3 (≈ 36.9 µM) | 75.2 | 96.8 | IC50 [17]: 2.8 µg/mL (≈ 9.11 µM); MIC [17]: 18.3 µg/mL (≈ 59.4 µM); IC50 (Staphylococcus aureus [19]): 0.84 to 0.843 µg/mL (≈ 2.73 to 2.74 µM); MIC (Staphylococcus aureus [19]): 3.38 µg/mL (≈ 11 µM); inhibition at 10 µg/mL (Pseudomonas aeruginosa [20]): 53.7%; IC50 (Escherichia coli [21]): 0.57 µg/mL (≈ 1.85 µM); MIC (Escherichia coli [21]): 4.05 µg/mL (≈ 13.2 µM)
O=C1OC2(CCNC2)CN1c1ccc(N2CCOCC2)c(F)c1 (stereo unspecified) | 8.05 | 36.2 | > 100 | > 100 | 13.6 | 36.2 | 21.5 | 46.8 | > 100 | > 100 | 49.3 | 86.4 | 50.2 | 22.6 | 32.2 | 99.8 | > 100 | > 100 | 17 | 96.2 | IC50 (Staphylococcus aureus [19]): > 100 µg/mL; MIC (Staphylococcus aureus [19]): > 100 µg/mL; inhibition at 10 µg/mL (Pseudomonas aeruginosa [20]): 32.2%; IC50 (Escherichia coli [21]): 4.44 µg/mL (≈ 13.8 µM); MIC (Escherichia coli [21]): 0.554 µg/mL (≈ 1.72 µM)
OC1(CNc2ccc(N3CCOCC3)c(F)c2)CCN(Cc2ccccc2)C1 (stereo unspecified) | 44.7 | 44.3 | > 100 | > 100 | 8 | 63.7 | 47.1 | 48.9 | > 100 | > 100 | 5.62 | 45 | 53.2 | 14.4 | 52.2 | 53.9 | > 100 | > 100 | 6.11 | 49.6 | IC50 (Staphylococcus aureus [19]): > 100 µg/mL; MIC (Staphylococcus aureus [19]): > 100 µg/mL; inhibition at 10 µg/mL (Pseudomonas aeruginosa [20]): 37.1%; IC50 (Escherichia coli [21]): > 100 µg/mL; MIC (Escherichia coli [21]): > 100 µg/mL
CC(=O)NC[C@H]1CN(c2ccc(N3CC4(COC4)C3)c(F)c2)C(=O)O1 | 88.8 | 90.4 | 0.65 (≈ 1.86 µM) | 3.46 (≈ 9.9 µM) | 15.1 | 98.5 | 95.4 | 91.8 | 0.58 (≈ 1.66 µM) | 6.4 (≈ 18.3 µM) | 95.2 | 3.06 | 99.5 | 85.5 | 100 | 28.8 | 2.07 (≈ 5.93 µM) | 3.1 (≈ 8.87 µM) | 94.7 | 17.4 | IC50 [17]: 1.56 µg/mL (≈ 4.47 µM); MIC [17]: 2.55 µg/mL (≈ 7.3 µM); IC50 (Staphylococcus aureus [19]): 0.53 µg/mL (≈ 1.52 µM); MIC (Staphylococcus aureus [19]): 2.9 µg/mL (≈ 8.3 µM); inhibition at 10 µg/mL (Pseudomonas aeruginosa [20]): 91.9%; IC50 (Escherichia coli [21]): > 100 µg/mL; MIC (Escherichia coli [21]): > 100 µg/mL
CC(C)(C)NC(=S)NC[C@H]1CN(c2ccc(N3CC4(COC4)C3)c(F)c2)C(=O)O1 | 66.3 | 82.1 | > 100 | > 100 | 9.56 | 62.7 | 79.3 | 90.4 | > 100 | > 100 | -6.69 | 75.7 | 98.9 | 0 | 97.2 | 100 | > 100 | > 100 | -3.66 | 84 | IC50 (Staphylococcus aureus [19]): 1.45 µg/mL (≈ 3.43 µM); MIC (Staphylococcus aureus [19]): 9.15 µg/mL (≈ 21.7 µM); inhibition at 10 µg/mL (Pseudomonas aeruginosa [20]): 37.5%; IC50 (Escherichia coli [21]): 1.38 µg/mL (≈ 3.27 µM); MIC (Escherichia coli [21]): 22.8 µg/mL (≈ 53.9 µM)
O=C1OC2(CCN(Cc3ccccc3)C2)CN1c1ccc(N2CCOCC2)c(F)c1 (stereo unspecified) | 24.5 | 30.5 | > 100 | > 100 | 18.1 | 50.1 | 17.4 | 22.9 | > 100 | > 100 | 20.8 | 31.2 | 23.1 | 35.9 | 14.7 | 23.9 | > 100 | > 100 | 7.06 | 23.7 | IC50 (Staphylococcus aureus [19]): > 100 µg/mL; MIC (Staphylococcus aureus [19]): > 100 µg/mL; inhibition at 10 µg/mL (Pseudomonas aeruginosa [20]): 32.7%; IC50 (Escherichia coli [21]): > 100 µg/mL; MIC (Escherichia coli [21]): > 100 µg/mL
CC(=O)N1CCC2(C1)CN(c1ccc(N3CCOCC3)c(F)c1)C(=O)O2 (stereo unspecified) | 23.9 | 45.2 | > 100 | > 100 | 19.7 | 56.2 | 32.2 | 50.2 | > 100 | > 100 | 12 | 36.2 | 53.6 | 42.8 | 42.2 | 46 | > 100 | > 100 | -8.05 | 42 | IC50 (Staphylococcus aureus [19]): > 100 µg/mL; MIC (Staphylococcus aureus [19]): > 100 µg/mL; inhibition at 10 µg/mL (Pseudomonas aeruginosa [20]): 48.4%; IC50 (Escherichia coli [21]): > 100 µg/mL; MIC (Escherichia coli [21]): > 100 µg/mL
O=C(NC[C@H]1CN(c2ccc(N3CC4(COC4)C3)c(F)c2)C(=O)O1)Nc1ccc(Cl)cc1 | 59.6 | 47.4 | > 100 | > 100 | 6.78 | 62 | 63.6 | 57.3 | > 100 | > 100 | 30.2 | 7.39 | 62.1 | 12.4 | 65 | 59.1 | > 100 | > 100 | 25.6 | 31.9 | IC50 (Staphylococcus aureus [19]): > 100 µg/mL; MIC (Staphylococcus aureus [19]): > 100 µg/mL; inhibition at 10 µg/mL (Pseudomonas aeruginosa [20]): 33.1%; IC50 (Escherichia coli [21]): > 100 µg/mL; MIC (Escherichia coli [21]): > 100 µg/mL
